In PubChem BioAssay AID296 (DTP/NCI, 2004) one finds T/C data, which are given here for 21 molecules.

Several values for one entry are separate records, joined by “and”; a condition that tells them apart may be missing. Identical values can stand only once. Records with an inconclusive call do not appear.

The test relates to MX-1 breast xenograft, nude mice, tumor weight T/C. The experiment in a line: NCI In Vivo Anticancer Drug Screen. Data for tumor model Human Mammary Carcinoma MX-1 Xenograft (intrarenal inoculation) in NU/NU Swiss (nude) mice. The settings on record: endpoint: mean tumor weight change, higher = larger tumour. The gist of the method:
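Activity is given as a ratio, with each measurement in the compound-treated arm divided by the matching measurement in vehicle-dosed controls. Tumour size or survival serves as the measured parameter.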
In general terms: Xenograft models place foreign cells or tissue in a host animal.

Where [1] appears, read: dose: 150.0 mg/kg/injection, schedule: Q04DX003 (sc), vehicle: saline with Tween-80.
Setting [2] is: dose: 300.0 mg/kg/injection, schedule: Q04DX003 (sc), vehicle: saline with Tween-80.
Where [3] appears, read: dose: 600.0 mg/kg/injection, schedule: Q04DX003 (sc), vehicle: saline with Tween-80.
Where [4] appears, read: dose: 100.0 mg/kg/injection, schedule: Q04DX003 (sc), vehicle: saline with Tween-80.
Where [5] appears, read: dose: 200.0 mg/kg/injection, schedule: Q04DX003 (sc), vehicle: saline with Tween-80.
Where [6] appears, read: dose: 400.0 mg/kg/injection, schedule: Q04DX003 (sc), vehicle: saline with Tween-80.
The mark [7] stands for this setting: dose: 800.0 mg/kg/injection, schedule: Q04DX003 (sc), vehicle: saline with Tween-80.
Setting [8] is: dose: 50.0 mg/kg/injection, schedule: Q01DX010 (sc), vehicle: saline.
Setting [9] is: dose: 100.0 mg/kg/injection, schedule: Q01DX010 (sc), vehicle: saline.

`CN(C)C1C(=O)C(C(=O)NP(=O)(NCCCO)N(CCCl)CCCl)=C(O)C2(O)C(=O)C3=C(O)c4c(O)cccc4C(C)(O)C3CC12` (stereo not given): the T/C under setting [1] is -100 % of control, the T/C under setting [2] was -98 % of control and the T/C under setting [3] was -100 % of control.

In the case of `CCCNC1=C(C)C(=O)C2=C(C1=O)[C@H](COC(N)=O)[C@]1(OC)[C@@H]3N[C@@H]3CN21`, the T/C (dose: 6.0 mg/kg/injection, schedule: Q04DX003 (sc), vehicle: suspension in saline) is 1 % of control and the T/C (dose: 12.0 mg/kg/injection, schedule: Q04DX003 (sc), vehicle: suspension in saline) is -83 % of control.

With `COC1=C(OC)C(=O)C(Sc2ccc3ccccc3c2)=CC1=O`, the T/C reads like this: under setting [4], 97 % of control; under setting [5], 68 % of control; under setting [6], 88 % of control; under setting [7], 61 % of control.

In the case of `CC1CN=C(c2ccc(NC(=O)c3ccc(C(=O)Nc4ccc(C5=NCC(C)N5)cc4)cc3)cc2)N1` (stereo not given), the T/C by setting is: (dose: 100.0 mg/kg/injection, schedule: Q01DX010 (sc), vehicle: Klucel (hydroxypropylcellulose) (HPC)) 96 % of control; (dose: 200.0 mg/kg/injection, schedule: Q01DX010 (sc), vehicle: Klucel (hydroxypropylcellulose) (HPC)) 107 % of control; (dose: 400.0 mg/kg/injection, schedule: Q01DX010 (sc), vehicle: Klucel (hydroxypropylcellulose) (HPC)) 110 % of control; (dose: 800.0 mg/kg/injection, schedule: Q01DX010 (sc), vehicle: Klucel (hydroxypropylcellulose) (HPC)) 77 % of control.

With `C=CCOCC1CO1` (stereo not given), the T/C (dose: 300.0 mg/kg/injection, schedule: Q04DX003 (sc), vehicle: saline) was 72 % of control.

As for `CC(=O)Oc1ccccc1O`, the T/C is 89 % of control (dose: 75.0 mg/kg/injection, schedule: Q04DX003 (sc), vehicle: saline + Tween-80 + alcohol); 117 % of control (dose: 150.0 mg/kg/injection, schedule: Q04DX003 (sc), vehicle: saline + Tween-80 + alcohol); 68 % of control (dose: 600.0 mg/kg/injection, schedule: Q04DX003 (sc), vehicle: saline + Tween-80 + alcohol).

Take `COc1cc(C2c3cc4c(cc3C(O)C(CO)C2CO)OCO4)cc(OC)c1OC` (stereo not given): the T/C under setting [4] was 109 % of control, the T/C under setting [5] is 97 % of control, the T/C under setting [6] was 106 % of control and the T/C under setting [7] was 86 % of control.

With `CCOC(=O)c1[nH]c2cccc3c2c1CC(Br)C3=O` (stereo not given), the T/C is, setting by setting: under setting [2], 86 % of control; under setting [3], 100 % of control; (dose: 1200.0 mg/kg/injection, schedule: Q04DX003 (sc), vehicle: saline with Tween-80) 73 % of control; (dose: 2400.0 mg/kg/injection, schedule: Q04DX003 (sc), vehicle: saline with Tween-80) 94 % of control.

For `COC1=CC(=O)C(OC)=C(OC)C1=O`, the T/C is 86 % of control (dose: 37.5 mg/kg/injection, schedule: Q04DX003 (sc), vehicle: saline with Tween-80) and 93 % of control under setting [1].

Consider `C1CCC2C[N-]CCC2C1.C1CCC2C[N-]CCC2C1.C1CCC2C[N-]CCC2C1.C1CCC2C[N-]CCC2C1.[Cl][Rh][Cl]` (stereo not given), for which the T/C was 107 % of control (dose: 18.0 mg/kg/injection, schedule: Q04DX003 (sc), vehicle: saline with Tween-80); 103 % of control (dose: 36.0 mg/kg/injection, schedule: Q04DX003 (sc), vehicle: saline with Tween-80); 86 % of control (dose: 72.0 mg/kg/injection, schedule: Q04DX003 (sc), vehicle: saline with Tween-80); 78 % of control (dose: 144.0 mg/kg/injection, schedule: Q04DX003 (sc), vehicle: saline with Tween-80).

Take `C=CS(=O)(=O)c1ccccc1`: the T/C reads like this: under setting [8], 91 % of control; under setting [9], 81 % of control.

With `Nc1n[n+](-c2ccccc2)no1`, the T/C is, setting by setting: (dose: 18.75 mg/kg/injection, schedule: Q04DX003 (sc), vehicle: water) 70 % of control; (dose: 37.5 mg/kg/injection, schedule: Q04DX003 (sc), vehicle: water) 94 % of control; (dose: 75.0 mg/kg/injection, schedule: Q04DX003 (sc), vehicle: water) 59 % of control.

Take `O=C(O)c1ccc(C(=O)O)c(C(=O)O)c1.[NH-]C1CCCCC1[NH-].[Pt+2]`: the T/C by setting is: (dose: 3.12 mg/kg/injection, schedule: Q01DX010 (sc), vehicle: sodium bicarbonate) 10 % of control and 27 % of control; (dose: 6.25 mg/kg/injection, schedule: Q01DX010 (sc), vehicle: sodium bicarbonate) 1 % of control and 2 % of control.

As for `CC(=O)Oc1ccc[nH]c1=O`, the T/C reads like this: under setting [5], 111 % of control; under setting [6], 100 % of control; under setting [7], 114 % of control.

Turning to `CCOC(=O)NC1=C(N2CC2)C(=O)C(NC(=O)OCC)=C(N2CC2)C1=O`, the T/C by setting is: (dose: 1.56 mg/kg/injection, schedule: Q01DX010 (sc), vehicle: saline) 1 % of control; (dose: 3.13 mg/kg/injection, schedule: Q01DX010 (sc), vehicle: saline) 3 % of control; (dose: 3.13 mg/kg/injection, schedule: Q04DX003 (ip), vehicle: suspension in saline) 41 % of control; (dose: 6.25 mg/kg/injection, schedule: Q04DX003 (ip), vehicle: suspension in saline) -44 % of control; (dose: 12.5 mg/kg/injection, schedule: Q04DX003 (ip), vehicle: suspension in saline) -100 % of control.

As for `COc1cc(C)c2c(c1C=O)Oc1c(c(C)c(O)c3c1C(O)OC3=O)OC2=O` (stereo not given), the T/C runs as follows: (dose: 6.25 mg/kg/injection, schedule: Q01DX010 (sc), vehicle: saline) 90 % of control; (dose: 12.5 mg/kg/injection, schedule: Q01DX010 (sc), vehicle: saline) 62 % of control and 78 % of control; (dose: 25.0 mg/kg/injection, schedule: Q01DX010 (sc), vehicle: saline) 96 % of control and 118 % of control; under setting [8], 67 % of control and 88 % of control; under setting [9], 98 % of control.

In the case of `C=C(C)C(=O)OC1C/C(CO)=C\C(O)C/C(C)=C/C2OC(=O)C(=C)C21` (stereo not given), the T/C by setting is: (dose: 20.0 mg/kg/injection, schedule: Q04DX003 (sc), vehicle: saline + alcohol) 55 % of control; (dose: 40.0 mg/kg/injection, schedule: Q04DX003 (sc), vehicle: saline + alcohol) 106 % of control; (dose: 80.0 mg/kg/injection, schedule: Q04DX003 (sc), vehicle: saline + alcohol) 66 % of control.

Regarding `OCC1(CO)COC2(CCCCC2)N1`, the T/C reads like this: under setting [8], 107 % of control; (dose: 200.0 mg/kg/injection, schedule: Q01DX010 (sc), vehicle: saline) 75 % of control; (dose: 200.0 mg/kg/injection, schedule: Q01DX010 (sc), vehicle: suspension in saline) 83 % of control; (dose: 400.0 mg/kg/injection, schedule: Q01DX010 (sc), vehicle: suspension in saline) 56 % of control; (dose: 800.0 mg/kg/injection, schedule: Q01DX010 (sc), vehicle: suspension in saline) 63 % of control; (dose: 1600.0 mg/kg/injection, schedule: Q01DX010 (sc), vehicle: suspension in saline) 105 % of control.

In the case of `C[C@H]1C[C@@H]2[C@H]([C@@H](O)C[C@@]3(C)[C@H]2CC[C@]3(O)C(=O)CO)[C@@]2(C)C=CC(=O)C=C12`, the T/C is, setting by setting: (dose: 200.0 mg/kg/injection, schedule: Q04DX003 (sc), vehicle: Klucel (hydroxypropylcellulose) (HPC)) 33 % of control; (dose: 400.0 mg/kg/injection, schedule: Q04DX003 (sc), vehicle: Klucel (hydroxypropylcellulose) (HPC)) 31 % of control; (dose: 800.0 mg/kg/injection, schedule: Q04DX003 (sc), vehicle: Klucel (hydroxypropylcellulose) (HPC)) 30 % of control; (dose: 1600.0 mg/kg/injection, schedule: Q04DX003 (sc), vehicle: Klucel (hydroxypropylcellulose) (HPC)) 13 % of control.

As to `CN(C)[C@@H]1C(=O)C(C(=O)NCN2CCN(C(=N)N=C(N)N)CC2)=C(O)[C@@]2(O)C(=O)C3=C(O)c4c(O)cccc4[C@@](C)(O)[C@H]3C[C@@H]12`, the T/C (dose: 2.5 mg/kg/injection, schedule: Q04DX003 (ip), vehicle: suspension in saline) is 100 % of control and the T/C (dose: 5.0 mg/kg/injection, schedule: Q04DX003 (ip), vehicle: suspension in saline) was 28 % of control.

As for `O=NN(CCCl)C(=O)Oc1cc(Cl)c(Cl)cc1Cl`, the T/C is 64 % of control (dose: 300.0 mg/kg/injection, schedule: Q04DX003 (sc), vehicle: Klucel (hydroxypropylcellulose) (HPC)); 35 % of control (dose: 600.0 mg/kg/injection, schedule: Q04DX003 (sc), vehicle: Klucel (hydroxypropylcellulose) (HPC)); 21 % of control (dose: 1200.0 mg/kg/injection, schedule: Q04DX003 (sc), vehicle: Klucel (hydroxypropylcellulose) (HPC)); 33 % of control (dose: 2400.0 mg/kg/injection, schedule: Q04DX003 (sc), vehicle: Klucel (hydroxypropylcellulose) (HPC)).
